# Laboratory results: ChEMBL document CHEMBL1152880, “Synthesis and SAR studies of trisubstituted purinones as potent and selective adenosine A2A receptor antagonists” (Bioorg Med Chem Lett, 2009)
# pKi: −log10 of the molar value.
# Assays:
# Adenosine receptor A2a = Adenosine receptor A2a (Homo sapiens, UniProt P29274); assay: Displacement of [3H]SCH-58261 from human recombinant adenosine A2A receptor expressed in HEK293 cells; format: cell-based
# Adenosine receptor A1 = target: T1, Adenosine receptor A1 (Homo sapiens, UniProt P30542); assay: Displacement of [3H]DPCPX from human recombinant adenosine A1 receptor expressed in CHOK1 cells; format: cell-based, CHO-K1
# T1 sequence (P30542 whole entry): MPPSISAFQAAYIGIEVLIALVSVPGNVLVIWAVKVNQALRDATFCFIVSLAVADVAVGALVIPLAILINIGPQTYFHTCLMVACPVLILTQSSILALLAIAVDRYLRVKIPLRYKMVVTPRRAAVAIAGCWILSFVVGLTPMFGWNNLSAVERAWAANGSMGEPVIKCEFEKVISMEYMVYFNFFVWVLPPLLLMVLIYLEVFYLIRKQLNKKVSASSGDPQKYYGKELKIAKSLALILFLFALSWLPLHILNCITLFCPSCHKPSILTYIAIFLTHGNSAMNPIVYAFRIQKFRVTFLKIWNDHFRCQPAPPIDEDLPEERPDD
# Homo sapiens = species on record: Homo sapiens; assay: Selectivity ratio of Ki for human adenosine A1 receptor to Ki for human recombinant adenosine A2A receptor
# Adenosine receptor A2a, sequence (P29274 whole entry): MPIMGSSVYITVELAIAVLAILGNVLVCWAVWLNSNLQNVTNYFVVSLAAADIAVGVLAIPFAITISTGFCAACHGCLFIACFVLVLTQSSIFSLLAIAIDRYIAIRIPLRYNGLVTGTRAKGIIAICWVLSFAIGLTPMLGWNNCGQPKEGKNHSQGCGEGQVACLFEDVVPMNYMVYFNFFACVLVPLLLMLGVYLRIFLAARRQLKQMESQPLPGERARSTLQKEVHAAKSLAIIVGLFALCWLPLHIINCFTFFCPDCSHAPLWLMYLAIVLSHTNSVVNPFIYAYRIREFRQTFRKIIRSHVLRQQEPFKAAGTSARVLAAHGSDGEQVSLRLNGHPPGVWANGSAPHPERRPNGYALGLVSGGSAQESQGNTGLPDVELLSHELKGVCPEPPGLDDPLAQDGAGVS
pKi (Adenosine receptor A2a),pKi (Adenosine receptor A1),Ratio Ki (Homo sapiens),SMILES
6.69,5.29,25,COc1ccccc1Cn1c(=O)n(-c2cccc(OC(F)(F)F)c2)c2nc(NC3CC3)ncc21
6.44,–,–,COc1cccc(-n2c(=O)n(C(C)c3ccccc3)c3cnc(NC4CC4)nc32)c1 (centres undefined)
7.07,5.55,33,COc1cccc(-n2c(=O)n(Cc3ccccc3Cl)c3cnc(NC4CC4)nc32)c1
5.29,5.90,0.2,COc1cccc(-n2c(=O)n(-c3ccccc3OC)c3cnc(NC4CC4)nc32)c1
7.18,5.89,20,COc1cccc(-n2c(=O)n(Cc3c(F)cccc3F)c3cnc(NCc4cccnc4)nc32)c1
7.14,5.53,42,COc1cccc(-n2c(=O)n(Cc3c(F)cccc3F)c3cnc(NCc4ccccc4)nc32)c1
7.64,5.95,49,CNc1ncc2c(n1)n(-c1cccc(OC)c1)c(=O)n2Cc1c(F)cccc1F
7.27,6.25,10,COc1cccc(-n2c(=O)n(Cc3ccccc3)c3cnc(NC4CC4)nc32)c1
6.30,5.97,2,COc1cccc(-n2c(=O)n(Cc3c(F)cccc3F)c3cnc(NCC4CC4)nc32)c1
7.62,6.40,17,COc1cccc(-n2c(=O)n(Cc3ccccc3OC)c3cnc(NC4CC4)nc32)c1
5.81,–,–,COc1ccccc1Cn1c(=O)n(-c2ccccc2OC)c2nc(NC3CC3)ncc21
6.50,5.73,6,COc1ccccc1Cn1c(=O)n(-c2cccc(C)c2)c2nc(NC3CC3)ncc21
6.58,5.00,38,COc1cccc(-n2c(=O)n(Cc3c(F)cccc3F)c3cnc(NCCN(C)C)nc32)c1
6.95,5.74,17,COc1cccc(-n2c(=O)n(Cc3c(F)cccc3F)c3cnc(Nc4cccnc4)nc32)c1
8.40,6.63,59,COc1cccc(-n2c(=O)n(Cc3c(F)cccc3F)c3cnc(NC4CC4)nc32)c1
7.12,5.33,61,COc1cc(OC)cc(-n2c(=O)n(Cc3ccccc3OC)c3cnc(NC4CC4)nc32)c1
7.11,5.74,23,COc1cccc(-n2c(=O)n(Cc3c(F)cccc3F)c3cnc(NCCc4ccccn4)nc32)c1
5.59,5.49,1.3,COc1ccccc1Cn1c(=O)n(-c2cccc(C#N)c2)c2nc(NC3CC3)ncc21
7.30,5.92,24,COc1cccc(-n2c(=O)n(Cc3c(F)cccc3F)c3cnc(NCc4ccncc4)nc32)c1
7.05,6.22,7,COc1ccccc1Cn1c(=O)n(-c2cccc(F)c2)c2nc(NC3CC3)ncc21
7.22,6.21,10,COc1cccc(-n2c(=O)n(Cc3c(F)cccc3F)c3cnc(NC(C)C)nc32)c1
7.48,6.70,6,COc1cccc(-n2c(=O)n(Cc3ccccc3F)c3cnc(NC4CC4)nc32)c1
6.67,5.98,5,COc1cccc(-n2c(=O)n(Cc3c(F)cccc3F)c3cnc(NC4CCCC4)nc32)c1
7.51,5.98,34,CCNc1ncc2c(n1)n(-c1cccc(OC)c1)c(=O)n2Cc1c(F)cccc1F
6.97,5.83,14,COCCNc1ncc2c(n1)n(-c1cccc(OC)c1)c(=O)n2Cc1c(F)cccc1F
6.39,6.35,1.1,COc1ccccc1Cn1c(=O)n(-c2ccccc2)c2nc(NC3CC3)ncc21
5.58,–,–,COc1cccc(-n2c(=O)n(C)c3cnc(NC4CC4)nc32)c1
8.22,6.48,55,COc1cccc(-n2c(=O)n(Cc3c(F)cccc3OC)c3cnc(NC4CC4)nc32)c1
5.04,< 5.00,–,COc1cccc(Cn2c(=O)n(Cc3ccccc3OC)c3cnc(NC4CC4)nc32)c1
6.59,5.07,33,COc1cccc(-n2c(=O)n(Cc3c(F)cccc3F)c3cnc(NCCN4CCOCC4)nc32)c1

SMILES,pKi (Adenosine receptor A2a),pKi (Adenosine receptor A1),Ratio Ki (Homo sapiens)
COc1cccc(-n2c(=O)n(Cc3c(F)cccc3F)c3cnc(NCCc4cccs4)nc32)c1,8.05,5.71,220
COc1cccc(-n2c(=O)n(Cc3c(F)cccc3F)c3cnc(NCc4ccccn4)nc32)c1,7.92,5.92,100
